{
  "source": "patent US8012980B2",
  "about": "“Isoquinolinone derivatives” (AstraZeneca AB, priority 2008, dated 2011)",
  "data": [
    {"target": "T1, human active recombinant p38 (p38α) (Homo sapiens, UniProt Q16539)", "T1 construct": "6His", "T1 sequence (Q16539 whole entry)": "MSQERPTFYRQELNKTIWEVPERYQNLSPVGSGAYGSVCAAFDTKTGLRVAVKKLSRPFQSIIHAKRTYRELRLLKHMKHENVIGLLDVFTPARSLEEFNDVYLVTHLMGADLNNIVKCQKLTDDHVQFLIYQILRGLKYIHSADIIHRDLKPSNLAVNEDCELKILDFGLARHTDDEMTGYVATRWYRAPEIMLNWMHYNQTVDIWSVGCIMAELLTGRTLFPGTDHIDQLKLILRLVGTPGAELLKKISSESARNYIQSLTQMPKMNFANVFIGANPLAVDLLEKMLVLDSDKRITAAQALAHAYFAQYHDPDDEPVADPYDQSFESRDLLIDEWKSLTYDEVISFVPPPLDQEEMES", "experiment": "p38 Alpha Enzyme Assay (AlphaScreen, biotinylated-ATF2 substrate)", "format": "biochemical", "conditions": "means of replicate determinations; pre-incubated for 4 hours at 37° C.; SD of assay between 0.2 and 0.3 log units; read-out: p38α inhibition Mean pIC50 (converted)", "procedure": "The ability of the compounds of formula (I) to inhibit p38 kinase may be determined using the following biological assay:\nEnzyme assays were performed in polypropylene 96 well plates. The following solutions were added to each well; 10 μL of compound dilutions in assay buffer (20 mM HEPES pH 7.4, containing 20 mM magnesium acetate, 0.005% (w/v) Tween-20, 10 mM DTT) containing 1% (v/v) DMSO or assay buffer containing 1% (v/v) DMSO alone, 70 μL of assay buffer containing 36 nM substrate (biotinylated-ATF2) and 10 μL of an appropriate dilution of human active recombinant p38-6H is tagged. Depending on batch of p38, an appropriate dilution was typically a 5 nM solution to give a final enzyme concentration of 0.5 nM. At this stage, background control wells also received 50 μL of AlphaScreen quench buffer (10 mM HEPES pH 7.4 containing 100 mM EDTA, 0.2% (w/v) bovine serum albumin). The plate was covered, pre-incubated for 4 hours at 37° C. and the enzyme reaction initiated by addition of 10 μL 1 mM ATP. After incubation for a further 45 minutes at 37° C., the reaction was stopped by addition of 50 μL quench reagent and 50 μL of the quenched reaction mixture transferred to an opaque, white 96-well plate. Detection reagent, 25 μL of 10 mM HEPES pH 7.4 containing 100 mM EDTA, 0.2% (w/v) bovine serum albumin, 0.3 nM anti phosphoATF2 antibody and 25 μg/mL of AlphaScreen protein A acceptor and donor beads' (PerkinElmer Inc.), was added to all wells in a darkened room, the plate sealed and left in the dark for at least 5 hours before AlphaScreen readings were taken using a Perkin Elmer EnVision reader. Total, uninhibited activity was determined from assays performed in each assay plate. The mean control in the absence of p38 activity was subtracted from each well. Data were expressed as percent inhibition of total activity using equation 1. Percent Inhibition=100*(1−Test/Control) Eq.1 Where . . . Test=p38 kinase activity in the presence of compound Control=p38 kinase activity in the absence of compound.\npIC50 is defined as the logarithm of the reciprocal of the concentration of compound required for 50% reduction in total p38 kinase activity.\nThe standard deviation of the p38 enzyme inhibition assay is between 0.2 and 0.3 log units.", "units": {"IC50": "nM"}, "values": [
      {"smiles": "Cc1c(F)cc(C(=O)NC2CC2)cc1-c1ccc2c(=O)n(CC(C)(C)CO)cc(S(=O)(=O)N3CCCNCC3)c2c1", "note": "[Example 46, N-Cyclopropyl-3-[4-(1,4-diazepan-1-ylsulfonyl)-2-(3-hydroxy-2,2-dimethylpropyl)-1-oxo-1,2-dihydroisoquinolin-6-yl]-5-fluoro-4-methylbenzamide]", "IC50": 0.158},
      {"smiles": "Cc1c(F)cc(C(=O)NC2CC2)cc1-c1ccc2c(=O)n(CC3CC3)cc(S(=O)(=O)N3CCNCC3)c2c1", "note": "[Example 47, N-Cyclopropyl-3-[2-(cyclopropylmethyl)-1-oxo-4-(piperazin-1-ylsulfonyl)-1,2-dihydroisoquinolin-6-yl]-5-fluoro-4-methylbenzamide]", "IC50": 0.251},
      {"smiles": "Cc1c(F)cc(C(=O)NC2CC2)cc1-c1ccc2c(=O)n(CC3CC3)cc(S(=O)(=O)N3CCN(C)CC3)c2c1", "note": "[Example 48, N-Cyclopropyl-3-{2-(cyclopropylmethyl)-4-[(4-methylpiperazin-1-yl)sulfonyl]-1-oxo-1,2-dihydroisoquinolin-6-yl}-5-fluoro-4-methylbenzamide]", "IC50": 0.398},
      {"smiles": "Cc1c(F)cc(C(=O)NC2CC2)cc1-c1ccc2c(=O)n(CC(C)(C)CO)cc(S(=O)(=O)N3CCN[C@@H](CO)C3)c2c1", "note": "[Example 49, N-Cyclopropyl-3-fluoro-5-[2-(3-hydroxy-2,2-dimethylpropyl)-4-{[(3R)-3-(hydroxymethyl)piperazin-1-yl]sulfonyl}-1-oxo-1,2-dihydroisoquinolin-6-yl]-4-methylbenzamide]", "IC50": 0.501},
      {"smiles": "Cc1c(F)cc(C(=O)NC2CC2)cc1-c1ccc2c(=O)n(CC3CC3)cc(S(=O)(=O)N3CCC(N)CC3)c2c1", "note": "[Example 50, 3-{4-[(4-Aminopiperidin-1-yl)sulfonyl]-2-(cyclopropylmethyl)-1-oxo-1,2-dihydroisoquinolin-6-yl}-N-cyclopropyl-5-fluoro-4-methylbenzamide]", "IC50": 0.2},
      {"smiles": "Cc1c(F)cc(C(=O)NC2CC2)cc1-c1ccc2c(=O)n(CC3CC3)cc(S(=O)(=O)N3CCCNCC3)c2c1", "note": "[Example 51, N-cyclopropyl-3-[2-(cyclopropylmethyl)-4-(1,4-diazepan-1-ylsulfonyl)-1-oxo-1,2-dihydroisoquinolin-6-yl]-5-fluoro-4-methylbenzamide]", "IC50": 0.1},
      {"smiles": "CNC1CCN(S(=O)(=O)c2cn(CC3CC3)c(=O)c3ccc(-c4cc(C(=O)NC5CC5)cc(F)c4C)cc23)CC1", "note": "[Example 52, N-cyclopropyl-3-[2-(cyclopropylmethyl)-4-{[4-(methylamino)piperidin-1-yl]sulfonyl}-1-oxo-1,2-dihydroisoquinolin-6-yl]-5-fluoro-4-methylbenzamide]", "IC50": 0.2},
      {"smiles": "Cc1c(F)cc(C(=O)NC2CC2)cc1-c1ccc2c(=O)n(CC(C)(C)CO)cc(S(=O)(=O)N3CC[C@H](N)C3)c2c1", "note": "[Example 53, 3-[4-{[(3S)-3-Aminopyrrolidin-1-yl]sulfonyl}-2-(3-hydroxy-2,2-dimethylpropyl)-1-oxo-1,2-dihydroisoquinolin-6-yl]-N-cyclopropyl-5-fluoro-4-methylbenzamide]", "IC50": 0.398},
      {"smiles": "Cc1c(F)cc(C(=O)NC2CC2)cc1-c1ccc2c(=O)n(CC(C)(C)CO)cc(S(=O)(=O)N3CC[C@@H](N)C3)c2c1", "note": "[Example 54, 3-[4-{[(3R)-3-Aminopyrrolidin-1-yl]sulfonyl}-2-(3-hydroxy-2,2-dimethylpropyl)-1-oxo-1,2-dihydroisoquinolin-6-yl]-N-cyclopropyl-5-fluoro-4-methylbenzamide]", "IC50": 0.251},
      {"smiles": "Cc1c(F)cc(C(=O)NC2CC2)cc1-c1ccc2c(=O)n(CC(C)(C)CO)cc(S(=O)(=O)N3CCC[C@@H]3CN)c2c1", "note": "[Example 55, 3-[4-{[(2R)-2-(aminomethyl)pyrrolidin-1-yl]sulfonyl}-2-(3-hydroxy-2,2-dimethylpropyl)-1-oxo-1,2-dihydroisoquinolin-6-yl]-N-cyclopropyl-5-fluoro-4-methylbenzamide]", "IC50": 2.51}
    ]}
  ]
}
